We go through five molecules from patent US9115145B2, “Tocotrienol derivatives and associated methods” (FIRST TECH INTERNATIONAL LIMITED, priority 2011, dated 2015).

Assay [1] has as its system MDA-MB-231 human breast cancer cells. The experiment in a line: Wound-healing assay (cell migration). Particulars: Homo sapiens; MDA-MB-231, wound-healing assay, dose response; read-out: IC50 antimigratory activity. The format is cell-based. In outline:
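Scratch wounds made in confluent (>95%) monolayers, then compounds added in fresh medium (5 μM in screening; concentration range in follow-up), DMSO as negative control, triplicate. After 24 h serum-starved at 37 °C, cells fixed and Diff-Quick stained. Migrated cells counted per 400× field (≥3 fields); IC50 from concentration range.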

The subject of assay [2] is leukemia and colon cancer cell lines. The experiment in a line: NCI screening at several concentrations (GI50, TGI, LC50). It is filed as cell-based, human. How it is done: The human tumor cell lines of the cancer screening panel were grown in RPMI 1640 medium containing 5% fetal bovine serum and 2 mM L-glutamine. For a typical screening experiment, cells are inoculated into 96 well microtiter plates in 100 μL at plating densities ranging from 5000 to 40,000 cells/well depending on the doubling time of individual cell lines. After cell inoculation, the microtiter plates are incubated at 37° C., 5% CO2, 95% air and 100% relative humidity for 24 hours prior to addition of experimental drugs. After 24 hours, two plates of each cell line are fixed in situ with Trichloroacetic acid (“TCA”), to represent a measurement of the cell population for each cell line at the time of drug addition. Experimental drugs are solubilized in dimethyl sulfoxide at 400-fold the desired final maximum test concentration and stored frozen prior to use. At the time of drug addition, an aliquot of frozen concentrate is thawed and diluted to twice the desired final maximum test concentration with complete medium containing 50 ng/mL gentamicin. An aliquot of 100 μL of this drug dilution is added to the appropriate microtiter wells already containing 100 μL of medium, resulting in the required final drug concentrations. Following drug addition, the plates are incubated for an additional 48 h at 37° C., 5% CO2, 95% air, and 100% relative humidity. For adherent cells, the assay is terminated by the addition of cold TCA. Cells are fixed in situ by the gentle addition of 50 μL of cold 50% (w/v) TCA (final concentration, 10% TCA) and incubated for 60 min at 4° C. The supernatant is discarded, and the plates are washed five times with tap water and air dried. Sulforhodamine B (SRB) solution (100 μL) at 0.4% (w/v) in 1% acetic acid is added to each well, and plates are incubated for 10 min at room temperature. After staining, unbound dye is removed by washing five times with 1% acetic acid and the plates are air dried. Bound stain is subsequently solubilized with 10 mM trizma base, and the absorbance is read on an automated plate reader at a wavelength of 515 nm. For suspension cells, the methodology is the same except that the assay is terminated by fixing settled cells at the bottom of the wells by gently adding 50 μL of 80% TCA (final concentration, 16% TCA). FIGS. 37-74 indicate the growth inhibition effects of selected Compounds against a variety of cell lines based on the above described testing configuration. FIGS. 37-74 present the Growth percent for a given compound against the cell lines and both values and a bar chart of the difference between the mean growth percent and the growth percent which is an indication of the selectivity of the compound for that particular cell line. […]

Assay [3] concerns MCF7 human breast cancer cell line. The experiment in a line: MTT assay of MCF7 cells. The format is cell-based. Particulars: Homo sapiens, media containing 1% fetal bovine serum. How it is done:
(§1) MDA-MB-231 and MCF7 cells were plated at a density of 8×10^3 cells/well and 10^4 cells/well in 96-well culture plates, respectively. The compounds were fed in serum free media containing 5% and 1% fetal bovine serum for MDA-MB-231 and MCF7 cells, respectively.

The subject of assay [4] is MCF 10A non-tumorigenic mammary epithelial cells. In words: MTT assay of MCF10A cells. The format is cell-based, human. The following applies: for IC50: Homo sapiens; for Selectivity index: IC50 for MCF 10A divided by IC50 for +SA cell line. In outline:
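MCF 10A non-tumorigenic human mammary epithelial cells were seeded at 10×10^4 cells/well and treated with compounds in serum-free medium, final DMSO below 0.1%. Viability was read by MTT, and IC50 came from non-linear regression. Selectivity index = MCF 10A IC50 ÷ +SA cell line IC50.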
A general note: Tetrazolium dyes change colour on reduction, which living cells bring about.

Assay [5] concerns MDA-MB-231 human breast cancer cell line. The experiment in a line: MTT assay of MDA-MB-231 cells. It is filed as cell-based. Particulars: Homo sapiens, media containing 5% fetal bovine serum. As for the experimental part:
as §1

Assay [6] relates to 60 human tumor cell lines. In words: NCI in vitro screening against 60 human cell lines, single concentration. The following applies: 10 μM dose; negative values indicate cytotoxicity. It is filed as cell-based. How it is done:
Compounds selected from Compounds 3-44 were provided to the National Cancer Institute for in vitro screening against 60-human cell lines for their ability to inhibit the growth of tumor cells in a full panel representing nine different organs (blood, lung, colon, CNS, skin, ovary, kidney, prostate, and breast). The compounds were tested at a single concentration of 10 μM, and the percentages of growth inhibitions over the sixty tested cell lines were determined. Compounds showing the highest activity were chosen for secondary assays using five different compound concentrations.
The human tumor cell lines of the cancer screening panel were grown in RPMI 1640 medium containing 5% fetal bovine serum and 2 mM L-glutamine. For a typical screening experiment, cells are inoculated into 96 well microtiter plates in 100 μL at plating densities ranging from 5000 to 40,000 cells/well depending on the doubling time of individual cell lines. After cell inoculation, the microtiter plates are incubated at 37° C., 5% CO2, 95% air and 100% relative humidity for 24 hours prior to addition of experimental drugs. After 24 hours, two plates of each cell line are fixed in situ with Trichloroacetic acid (“TCA”), to represent a measurement of the cell population for each cell line at the time of drug addition. Experimental drugs are solubilized in dimethyl sulfoxide at 400-fold the desired final maximum test concentration and stored frozen prior to use. At the time of drug addition, an aliquot of frozen concentrate is thawed and diluted to twice the desired final maximum test concentration with complete medium containing 50 ng/mL gentamicin. An aliquot of 100 μL of this drug dilution is added to the appropriate microtiter wells already containing 100 μL of medium, resulting in the required final drug concentrations. Following drug addition, the plates are incubated for an additional 48 h at 37° C., 5% CO2, 95% air, and 100% relative humidity. For adherent cells, the assay is terminated by the addition of cold TCA. Cells are fixed in situ by the gentle addition of 50 μL of cold 50% (w/v) TCA (final concentration, 10% TCA) and incubated for 60 min at 4° C. The supernatant is discarded, and the plates are washed five times with tap water and air dried. Sulforhodamine B (SRB) solution (100 μL) at 0.4% (w/v) in 1% acetic acid is added to each well, and plates are incubated for 10 min at room temperature. After staining, unbound dye is removed by washing five times with 1% acetic acid and the plates are air dried. Bound stain is subsequently solubilized with 10 mM trizma base, and the absorbance is read on an automated plate reader at a wavelength of 515 nm. For suspension cells, the methodology is the same except that the assay is terminated by fixing settled cells at the bottom of the wells by gently adding 50 μL of 80% TCA (final concentration, 16% TCA). FIGS. 37-74 indicate the growth inhibition effects of selected Compounds against a variety of cell lines based on the above described testing configuration. FIGS. 37-74 present the Growth percent for a given compound against the cell lines and both values and a bar chart of the difference between the mean growth percent and the growth percent which is an indication of the selectivity of the compound for that particular cell line.

For assay [7], the system named is +SA mammary epithelial cells. The experiment in a line: MTT assay of +SA cells (antiproliferative activity). It is filed as cell-based, mouse. How it is done:
The antiproliferative activities of Compounds 3-44 against the highly metastatic malignant +SA mammary epithelial cells were evaluated by MTT assay. Materials for the assay were purchased from Sigma Chemical Company (St. Louis, Mo.) unless otherwise stated. The highly malignant +SA mouse mammary epithelial cell line was serially passaged at subconfluent cell density. The +SA mammary tumor cell line was derived from an adenocarcinoma that developed spontaneously in a BALB/c female mouse. +SA cells were maintained in serum-free defined medium consisting of Dulbecco's modified Eagle's medium (DMEM)/F12 containing 5 mg/mL bovine serum albumin (BSA), 10 […], 100 U/mL soybean trypsin inhibitor, 100 U/mL penicillin G, 0.1 mg/mL streptomycin, […], and 10 ng/mL epidermal growth factor. For subculturing, cells were rinsed twice with sterile Ca2+ and Mg2+-free phosphate buffered saline (PBS) and incubated in 0.05% trypsin containing 0.025% EDTA in PBS for 5 min at 37° C. The released cells were centrifuged, resuspended in fresh media and counted using hemocytometer. A stock solution of the compounds was prepared in DMSO. Once dissolved, this solution was added to a small volume of sterile 10% BSA in water and incubated overnight at 37° C. This solution conjugated to BSA was used to prepare various concentrations (0-40 μM) of tocotrienol analogs. DMSO was added to all treatment media such that the final DMSO concentration was the same in all treatment groups within a given experiment and was always less than 0.1%. For cytotoxic studies, cells were seeded at a density of 5×10^4 cells/well (+SA cells) or 1×10^5 cells/well (CL-S1 cells) (6 wells/group) in 24-well culture plates and allowed to grow in their respective control media. After 3 days incubation period (approximately 70% confluency), cells were divided equally into various treatment groups and exposed to their respective treatments for a 24 hours incubation period. Following the 24 hours treatment period, cell viability was measured using the MTT assay.
+SA Mammary epithelial cell viable number was determined by a 3-(4,5-dimethylthiazol-2yl)-2,5-diphenyl tetrazolium bromide (MTT) colorimetric assay. On the assay day, treatment medium was replaced with fresh control medium containing 0.42 mg/mL MTT, and the cells in 24-well plates were incubated at 37° C. for 4 hours. Afterward, the medium was removed, and the MTT crystals were dissolved in isopropyl alcohol (1 mL/well). The optical density of each sample was read at 570 nm on a microplate reader (SpectraCount, Packard BioScience Company), against a blank prepared from cell-free cultures. The number of cells/well was calculated against a standard curve prepared by plating various concentrations of cells, as determined by hemocytometer, at the start of each experiment.
Differences among the various treatment groups in +SA cell cytotoxic studies were determined by analysis of variance (ANOVA) followed by Dunnett's t-test. The difference of P<0.05 was considered to be statistically significant as compared with vehicle-treated controls unless separately described. Linear regression analysis of treatment effects on viable cell number in growth and cytotoxicity studies was used to determine the 50% growth inhibition concentration (IC50) for individual treatments.

[8] abbreviates: MCF-10A, MCF10A cells, Table II, non-linear regression, read-out: MCF10A (IC50).
Where [9] appears, read: MCF 10A non-tumorigenic cells, Table I, read-out: IC50 MCF 10A.

Where two headings read alike, the source gives them in different places.

One may read the IC50 as the concentration that gives 50% inhibition. Turning to `CC(C)=CCC/C(C)=C/CC/C(C)=C/CC[C@]1(C)CCc2c3c(cc(C)c2O1)OCN(CCCCCCCCO)C3` [Compound 40, 8-((R)-6,8-dimethyl-8-((3E,7E)-4,8,12-trimethyltrideca-3,7,11-trienyl)-9,10-dihydrochromeno[5,6-e][1,3]oxazin-2(1H,3H,8H)-yl)octan-1-ol], the IC50 in assay [1] is 4.9 µM; in assay [3], greater than 20 µM; in assay [4] (setting [8]), 1.7 µM; in assay [4] (setting [9]), 1.7 µM; in assay [5], 11.7 µM. The GI50 entry in assay [2] is reported as “nanomolar”. The molecule further gave a Selectivity index in assay [4] of 2.15. Besides, the “mean percent growth across all 60 cell lines (mean 60)” value in assay [6] was “negative”.
For the molecule `CC(C)=CCC/C(C)=C/CC/C(C)=C/CC[C@]1(C)CCc2c3c(cc(C)c2O1)OCN(CCCCCCO)C3` [Compound 38, 6-((R)-6,8-dimethyl-8-((3E,7E)-4,8,12-trimethyltrideca-3,7,11-trienyl)-9,10-dihydrochromeno[5,6-e][1,3]oxazin-2(1H,3H,8H)-yl)hexan-1-ol], the IC50 in assay [1] is 1.5 µM; in assay [3], greater than 20 µM; in assay [4] (setting [8]) it was 2.5 µM; in assay [4] (setting [9]), 2.5 µM; in assay [5], greater than 5 µM. Moreover, the GI50 result in assay [2] is on record as “nanomolar”. This molecule had a Selectivity index in assay [4] of 1.92. Besides, the “mean percent growth across all 60 cell lines (mean 60)” value in assay [6] was “negative”.
For the molecule `CC(C)=CCC/C(C)=C/CC/C(C)=C/CC[C@]1(C)CCc2c(CNCCc3ccc(O)cc3)c(O)c(C)c(C)c2O1` [Compound 31, (R)-5-((4-hydroxyphenethylamino)methyl)-2,7,8-trimethyl-2-((3E,7E)-4,8,12-trimethyltrideca-3,7,11-trienyl)chroman-6-ol], the IC50 in assay [7] (Mus musculus, +SA cell, 24 hours treatment, read-out: IC50 antiproliferative activity against +SA mammary epithelial cells) was found to be 0.47 µM. The “mean percent growth across all 60 cell lines (mean 60)” value in assay [6] is on record as “comparable to the activity of Compound 1”.
In the case of `CC(C)=CCC/C(C)=C/CC/C(C)=C/CC[C@]1(C)CCc2c3c(cc(C)c2O1)OCN(C1CCN(Cc2ccccc2)CC1)C3` [Compound 8, (R)-2-(1-benzylpiperidin-4-yl)-6,8-dimethyl-8-((3E,7E)-4,8,12-trimethyltrideca-3,7,11-trienyl)-1,2,3,8,9,10-hexahydrochromeno[5,6-e][1,3]oxazine], the GI50 result in assay [2] was “nanomolar”.
Turning to `CC(C)=CCC/C(C)=C/CC/C(C)=C/CC[C@]1(C)CCc2c3c(c(C)c(C)c2O1)OCN(CCCCCO)C3` [Compound 17, 5-((R)-5,6,8-trimethyl-8-((3E,7E)-4,8,12-trimethyltrideca-3,7,11-trienyl)-9,10-dihydrochromeno[5,6-e][1,3]oxazin-2(1H,3H,8H)-yl)pentan-1-ol], the GI50 entry in assay [2] was “nanomolar”. In addition, the IC50 in assay [3] is greater than 20 µM; in assay [4] (setting [8]), 8.9 µM; in assay [4] (setting [9]), 8.9 µM; in assay [5], greater than 50 µM. In addition, in assay [4], the Selectivity index amounted to 5.24. In addition, the “antiproliferative activity against +SA mammary tumor cells (in words)” value in assay [7] (described from FIG. 32 / text) is “very high activities”.
